According to the supplement of paper PMC10307832:

Legend:
Experiment in all cases: relative viability (nuclei count vs DMSO), 5 days (fraction); higher = more cells survive
Neratinib + AZD7762 = compound: CCOc1cc2ncc(C#N)c(Nc3ccc(OCc4ccccn4)c(Cl)c3)c2cc1NC(=O)/C=C/CN(C)C [Neratinib] + NC(=O)Nc1cc(-c2cccc(F)c2)sc1C(=O)N[C@H]1CCCNC1 [AZD7762] (partner 0.2 µM)
Summary of the method: (§1)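 The day after seeding in 1536-well plates, lung cancer cell lines were treated by pin tool with a single drug, or with a fixed anchor-drug dose together with five library-drug doses (not always all listed) in √10 steps. After 5 days, a combined fix-and-stain solution (final 0.05% Triton X-100, 1% formaldehyde, 1 ug/ml Hoechst) was added. Nuclei counted on 4× images gave relative viability as treated counts over vehicle counts, reported as the median of duplicate plates.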

Neratinib + Tozasertib = compound: CCOc1cc2ncc(C#N)c(Nc3ccc(OCc4ccccn4)c(Cl)c3)c2cc1NC(=O)/C=C/CN(C)C [Neratinib] + Cc1cc(Nc2cc(N3CCN(C)CC3)nc(Sc3ccc(NC(=O)C4CC4)cc3)n2)n[nH]1 [Tozasertib] (partner 0.1 µM)
Summary of the method: as §1

Neratinib + Foretinib = compound: CCOc1cc2ncc(C#N)c(Nc3ccc(OCc4ccccn4)c(Cl)c3)c2cc1NC(=O)/C=C/CN(C)C [Neratinib] + COc1cc2c(Oc3ccc(NC(=O)C4(C(=O)Nc5ccc(F)cc5)CC4)cc3F)ccnc2cc1OCCCN1CCOCC1 [Foretinib] (partner 0.25 µM)
Summary of the method: as §1

Neratinib + Luminespib = compound: CCOc1cc2ncc(C#N)c(Nc3ccc(OCc4ccccn4)c(Cl)c3)c2cc1NC(=O)/C=C/CN(C)C [Neratinib] + CCNC(=O)c1noc(-c2cc(C(C)C)c(O)cc2O)c1-c1ccc(CN2CCOCC2)cc1 [Luminespib] (partner 0.01 µM)
Summary of the method: as §1

Cell Line	relative viability (Neratinib + AZD7762; first compound 0.01 µM)	relative viability (Neratinib + AZD7762; first compound 0.03162 µM)	relative viability (Neratinib + AZD7762; first compound 0.1 µM)	relative viability (Neratinib + AZD7762; first compound 0.3162 µM)	relative viability (Neratinib + AZD7762; first compound 1 µM)	relative viability (Neratinib + Tozasertib; first compound 0.01 µM)	relative viability (Neratinib + Tozasertib; first compound 0.03162 µM)	relative viability (Neratinib + Tozasertib; first compound 0.1 µM)	relative viability (Neratinib + Tozasertib; first compound 0.3162 µM)	relative viability (Neratinib + Tozasertib; first compound 1 µM)	relative viability (Neratinib + Foretinib; first compound 0.01 µM)	relative viability (Neratinib + Foretinib; first compound 0.03162 µM)	relative viability (Neratinib + Foretinib; first compound 0.1 µM)	relative viability (Neratinib + Foretinib; first compound 0.3162 µM)	relative viability (Neratinib + Foretinib; first compound 1 µM)	relative viability (Neratinib + Luminespib; first compound 0.01 µM)	relative viability (Neratinib + Luminespib; first compound 0.03162 µM)	relative viability (Neratinib + Luminespib; first compound 0.1 µM)	relative viability (Neratinib + Luminespib; first compound 0.3162 µM)	relative viability (Neratinib + Luminespib; first compound 1 µM)
HCC-827	0.217	0.236	0.132	0.129	0.132	0.414	0.428	0.396	0.268	0.136	1.17	1.11	0.934	0.186	0.173	1.08	1.03	0.703	0.176	0.18
HOP-62	0.672	0.525	0.559		0.443	0.444	0.354	0.33	0.369	0.32	1.16	1.08	0.982	1.14	0.92	0.917	0.974	0.893	0.884	0.927
IA-LM											1.36	1.36	1.11	0.927	0.628					
LC-2-ad	0.832	0.894		0.551	0.327	0.448	0.424	0.455	0.388	0.277	0.898	0.989	0.777	0.532	0.393	1.11	1.1	1.04	0.87	0.465
LCLC-97TM1	0.224	0.251	0.218	0.207	0.304	0.239	0.189	0.298	0.238	0.121	1.07	0.952	0.829	0.824	0.483	0.823	0.837	0.762	0.684	0.589
LCLC-103H	0.818	0.812	0.655	0.857	0.68	0.44	0.503	0.502	0.511	0.365	0.926	0.805	0.704	0.697	0.496	0.921	0.981	0.883	0.93	0.647
NCI-H520						0.455	0.418	0.401	0.433	0.33	0.96		0.61		0.394	0.244	0.207	0.231	0.214	0.228
NCI-H522	0.781	0.844	0.878	0.804	0.718	0.573	0.608	0.571	0.46	0.499						1.12	1.12	1.09	0.913	0.655
NCI-H661						0.374	0.322	0.323	0.37	0.308	1.05	1.06	0.836	0.489	0.364	0.966	0.905	0.593	0.587	0.372
NCI-H1299											1.1	1.09	1.07	1.12	1.12					
